Results published in ChEMBL document CHEMBL4390652, “Design, biological evaluation and X-ray crystallography of nanomolar multifunctional ligands targeting simultaneously acetylcholinesterase and glycogen synthase kinase-3” (Eur J Med Chem, 2019).

Experiments:
[1] = molecular target: Ephrin type-B receptor 2 (Homo sapiens) (UniProt P29323); assay: Binding affinity to wild-type human partial length EPHB2 (I597 to L902 residues) expressed in bacterial expression system assessed as residual binding level at 10 uM by Kinomescan method relative to control
[2] = molecular target: Mitogen-activated protein kinase 7 (Homo sapiens) (UniProt Q13164); assay: Binding affinity to wild-type human partial length ERK5 (M1 to A409 residues) expressed in bacterial expression system assessed as residual binding level at 10 uM by Kinomescan method relative to control
[3] = molecular target: Dual specificity protein kinase CLK2 (Homo sapiens) (UniProt P49760); assay: Binding affinity to wild-type human partial length CLK2 (D144 to R498 residues) expressed in bacterial expression system assessed as residual binding level at 10 uM by Kinomescan method relative to control
[4] = molecular target: Serine/threonine-protein kinase mTOR (Homo sapiens) (UniProt P42345); assay: Binding affinity to wild-type human partial length MTOR (L1382 to W2549 residues) expressed in mammalian expression system assessed as residual binding level at 10 uM by Kinomescan method relative to control
[5] = molecular target: Ribosomal protein S6 kinase alpha-2 (Homo sapiens) (UniProt Q15349); assay: Binding affinity to wild-type human partial length N-terminal RSK3 kinase domain 1 (M1 to Q385 residues) expressed in bacterial expression system assessed as residual binding level at 10 uM by Kinomescan method relative to control
[6] = molecular target: Ephrin type-A receptor 5 (Homo sapiens) (UniProt P54756); assay: Binding affinity to wild-type human partial length EPHA5 (T627 to V930 residues) expressed in bacterial expression system assessed as residual binding level at 10 uM by Kinomescan method relative to control
[7] = molecular target: Serine/threonine-protein kinase MRCK gamma (Homo sapiens) (UniProt Q6DT37); assay: Binding affinity to wild-type human partial length DMPK2 (S46 to S408 residues) expressed in bacterial expression system assessed as residual binding level at 10 uM by Kinomescan method relative to control
[8] = molecular target: Serine/threonine-protein kinase PAK 2 (Homo sapiens) (UniProt Q13177); assay: Binding affinity to wild-type human partial length PAK2 (P151 to R525 residues) expressed in bacterial expression system assessed as residual binding level at 10 uM by Kinomescan method relative to control
[9] = molecular target: Phosphatidylinositol 5-phosphate 4-kinase type-2 gamma (Homo sapiens) (UniProt Q8TBX8); assay: Binding affinity to wild-type human partial length PIP5K2C (M1 to A421 residues) expressed in mammalian expression system assessed as residual binding level at 10 uM by Kinomescan method relative to control
[10] = system: Tyrosine-protein kinase ABL1 (Homo sapiens), P00519 [H396P]; assay: Binding affinity to human non-phosphorylated ABL1 H396P mutant (S229 to K512 residues) expressed in mammalian expression system assessed as residual binding level at 10 uM by Kinomescan method relative to control
[11] = molecular target: Ribosomal protein S6 kinase alpha-3 (Homo sapiens) (UniProt P51812); assay: Binding affinity to wild-type human partial length N-terminal RSK2 kinase domain 1 (M1 to D394 residues) expressed in mammalian expression system assessed as residual binding level at 10 uM by Kinomescan method relative to control
[12] = molecular target: Tyrosine-protein kinase JAK1 (Homo sapiens) (UniProt P23458); assay: Binding affinity to wild-type human partial length JAK1 JH2 pseudokinase domain (R537 to D855 residues) expressed in mammalian expression system assessed as residual binding level at 10 uM by Kinomescan method relative to control
[13] = molecular target: Macrophage colony-stimulating factor 1 receptor (Homo sapiens) (UniProt P07333); assay: Binding affinity to wild-type human partial length CSF1R (I564 to S939 residues) expressed in bacterial expression system assessed as residual binding level at 10 uM by Kinomescan method relative to control
[14] = molecular target: Mitotic checkpoint serine/threonine-protein kinase BUB1 (Homo sapiens) (UniProt O43683); assay: Binding affinity to wild-type human partial length BUB1 (Q724 to K1085 residues) expressed in mammalian expression system assessed as residual binding level at 10 uM by Kinomescan method relative to control
[15] = molecular target: Bone morphogenetic protein receptor type-2 (Homo sapiens) (UniProt Q13873); assay: Binding affinity to wild-type human partial length BMPR2 (R179 to Q526 residues) expressed in mammalian expression system assessed as residual binding level at 10 uM by Kinomescan method relative to control
[16] = molecular target: Myosin-IIIa (Homo sapiens) (UniProt Q8NEV4); assay: Binding affinity to wild-type human partial length MYO3A (M1 to K338 residues) expressed in bacterial expression system assessed as residual binding level at 10 uM by Kinomescan method relative to control
[17] = system: Proto-oncogene tyrosine-protein kinase receptor Ret (Homo sapiens), P07949 [M918T]; assay: Binding affinity to human partial length RET M918T mutant (E713 to D1014 residues) expressed in bacterial expression system assessed as residual binding level at 10 uM by Kinomescan method relative to control
[18] = system: Leucine-rich repeat serine/threonine-protein kinase 2 (Homo sapiens), Q5S007 [G2019S]; assay: Binding affinity to human partial length LRRK2 G2019S mutant (H970 to E2527 residues) expressed in mammalian expression system assessed as residual binding level at 10 uM by Kinomescan method relative to control
[19] = system: Receptor-type tyrosine-protein kinase FLT3 (Homo sapiens), P36888 [R834Q]; assay: Binding affinity to human partial length FLT3 R834Q mutant (V592 to Y969 residues) expressed in mammalian expression system assessed as residual binding level at 10 uM by Kinomescan method relative to control
[20] = molecular target: Tyrosine-protein kinase receptor Tie-1 (Homo sapiens) (UniProt P35590); assay: Binding affinity to wild-type human partial length TIE1 (T819 to A1138 residues) expressed in bacterial expression system assessed as residual binding level at 10 uM by Kinomescan method relative to control
[21] = molecular target: SNF-related serine/threonine-protein kinase (Homo sapiens) (UniProt Q9NRH2); assay: Binding affinity to wild-type human partial length SNRK (M1 to E339 residues) expressed in mammalian expression system assessed as residual binding level at 10 uM by Kinomescan method relative to control
Caco-2 = assay: Cytotoxicity against human Caco2 cells assessed as growth inhibition incubated for 48 hrs by Hoechst 33342 staining based assay; assay type: cell-based; details: Caco-2, 48 h
MDR1 = assay: in vitro; details: dog, MDCK-MDR1
Description: Apparent permeability across apical to basolateral side in MDCK2-MDR1 cells by HPLC analysis

[22] = molecular target: Calcium/calmodulin-dependent protein kinase type 1G (Homo sapiens) (UniProt Q96NX5); assay: Binding affinity to wild-type human partial length CAMK1G (M1 to A342 residues) expressed in bacterial expression system assessed as residual binding level at 10 uM by Kinomescan method relative to control
[23] = molecular target: Myosin light chain kinase family member 4 (Homo sapiens) (UniProt Q86YV6); assay: Binding affinity to wild-type human partial length MYLK4 (V79 to S380 residues) expressed in bacterial expression system assessed as residual binding level at 10 uM by Kinomescan method relative to control

Sequence of Mitotic checkpoint serine/threonine-protein kinase BUB1 (Homo sapiens) (O43683 whole entry, looked up, the tested form may be a part): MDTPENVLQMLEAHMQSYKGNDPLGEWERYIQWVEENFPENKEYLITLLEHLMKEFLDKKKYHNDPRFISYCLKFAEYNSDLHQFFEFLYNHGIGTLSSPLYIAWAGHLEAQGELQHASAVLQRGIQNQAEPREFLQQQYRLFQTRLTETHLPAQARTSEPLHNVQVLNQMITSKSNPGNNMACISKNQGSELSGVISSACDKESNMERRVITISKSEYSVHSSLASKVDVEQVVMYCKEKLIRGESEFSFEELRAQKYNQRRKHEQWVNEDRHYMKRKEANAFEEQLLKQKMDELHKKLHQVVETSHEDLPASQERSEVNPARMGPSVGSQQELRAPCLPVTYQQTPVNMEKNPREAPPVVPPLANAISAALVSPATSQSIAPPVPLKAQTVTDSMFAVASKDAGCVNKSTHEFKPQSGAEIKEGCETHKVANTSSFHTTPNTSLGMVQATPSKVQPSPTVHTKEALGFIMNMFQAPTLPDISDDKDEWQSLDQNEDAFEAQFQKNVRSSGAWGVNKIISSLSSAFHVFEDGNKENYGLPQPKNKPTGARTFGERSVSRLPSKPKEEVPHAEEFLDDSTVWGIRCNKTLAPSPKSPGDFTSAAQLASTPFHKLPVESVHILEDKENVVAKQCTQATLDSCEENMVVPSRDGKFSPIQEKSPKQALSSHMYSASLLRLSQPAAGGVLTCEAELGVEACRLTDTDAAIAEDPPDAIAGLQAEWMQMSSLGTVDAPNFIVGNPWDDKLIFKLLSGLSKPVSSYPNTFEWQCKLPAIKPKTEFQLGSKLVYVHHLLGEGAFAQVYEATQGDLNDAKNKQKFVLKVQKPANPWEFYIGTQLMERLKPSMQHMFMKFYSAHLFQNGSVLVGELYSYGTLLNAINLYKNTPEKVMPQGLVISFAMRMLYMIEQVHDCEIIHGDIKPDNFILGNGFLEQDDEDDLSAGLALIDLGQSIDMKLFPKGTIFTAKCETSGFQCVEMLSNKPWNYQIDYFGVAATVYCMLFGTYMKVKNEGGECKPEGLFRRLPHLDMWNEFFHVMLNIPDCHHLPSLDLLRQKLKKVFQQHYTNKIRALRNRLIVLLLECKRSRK
Sequence of Mitogen-activated protein kinase 7 (Homo sapiens) (Q13164 2-816 limits assumed): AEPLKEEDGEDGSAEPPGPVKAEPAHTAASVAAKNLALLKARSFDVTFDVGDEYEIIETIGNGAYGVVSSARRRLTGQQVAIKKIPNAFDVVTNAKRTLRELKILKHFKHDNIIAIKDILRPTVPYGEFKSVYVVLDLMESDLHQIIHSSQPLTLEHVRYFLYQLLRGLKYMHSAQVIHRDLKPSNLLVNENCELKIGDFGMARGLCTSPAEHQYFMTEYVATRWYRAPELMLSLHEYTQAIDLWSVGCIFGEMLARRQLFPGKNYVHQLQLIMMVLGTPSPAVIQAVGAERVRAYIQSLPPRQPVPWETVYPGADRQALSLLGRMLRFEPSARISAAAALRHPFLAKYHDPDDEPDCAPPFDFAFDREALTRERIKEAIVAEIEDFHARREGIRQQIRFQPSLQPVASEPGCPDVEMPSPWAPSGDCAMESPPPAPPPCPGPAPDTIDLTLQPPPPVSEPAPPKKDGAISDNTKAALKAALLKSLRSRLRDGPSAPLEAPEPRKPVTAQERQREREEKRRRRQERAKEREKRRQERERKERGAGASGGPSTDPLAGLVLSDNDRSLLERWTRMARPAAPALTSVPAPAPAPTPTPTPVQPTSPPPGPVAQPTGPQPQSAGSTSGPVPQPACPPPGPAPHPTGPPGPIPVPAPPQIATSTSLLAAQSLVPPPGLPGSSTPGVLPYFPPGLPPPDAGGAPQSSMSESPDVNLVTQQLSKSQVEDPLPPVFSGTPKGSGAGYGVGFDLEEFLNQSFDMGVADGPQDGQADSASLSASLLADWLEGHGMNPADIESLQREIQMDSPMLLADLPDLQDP
Sequence of Myosin-IIIa (Homo sapiens) (Q8NEV4 whole entry, the tested form may be a part): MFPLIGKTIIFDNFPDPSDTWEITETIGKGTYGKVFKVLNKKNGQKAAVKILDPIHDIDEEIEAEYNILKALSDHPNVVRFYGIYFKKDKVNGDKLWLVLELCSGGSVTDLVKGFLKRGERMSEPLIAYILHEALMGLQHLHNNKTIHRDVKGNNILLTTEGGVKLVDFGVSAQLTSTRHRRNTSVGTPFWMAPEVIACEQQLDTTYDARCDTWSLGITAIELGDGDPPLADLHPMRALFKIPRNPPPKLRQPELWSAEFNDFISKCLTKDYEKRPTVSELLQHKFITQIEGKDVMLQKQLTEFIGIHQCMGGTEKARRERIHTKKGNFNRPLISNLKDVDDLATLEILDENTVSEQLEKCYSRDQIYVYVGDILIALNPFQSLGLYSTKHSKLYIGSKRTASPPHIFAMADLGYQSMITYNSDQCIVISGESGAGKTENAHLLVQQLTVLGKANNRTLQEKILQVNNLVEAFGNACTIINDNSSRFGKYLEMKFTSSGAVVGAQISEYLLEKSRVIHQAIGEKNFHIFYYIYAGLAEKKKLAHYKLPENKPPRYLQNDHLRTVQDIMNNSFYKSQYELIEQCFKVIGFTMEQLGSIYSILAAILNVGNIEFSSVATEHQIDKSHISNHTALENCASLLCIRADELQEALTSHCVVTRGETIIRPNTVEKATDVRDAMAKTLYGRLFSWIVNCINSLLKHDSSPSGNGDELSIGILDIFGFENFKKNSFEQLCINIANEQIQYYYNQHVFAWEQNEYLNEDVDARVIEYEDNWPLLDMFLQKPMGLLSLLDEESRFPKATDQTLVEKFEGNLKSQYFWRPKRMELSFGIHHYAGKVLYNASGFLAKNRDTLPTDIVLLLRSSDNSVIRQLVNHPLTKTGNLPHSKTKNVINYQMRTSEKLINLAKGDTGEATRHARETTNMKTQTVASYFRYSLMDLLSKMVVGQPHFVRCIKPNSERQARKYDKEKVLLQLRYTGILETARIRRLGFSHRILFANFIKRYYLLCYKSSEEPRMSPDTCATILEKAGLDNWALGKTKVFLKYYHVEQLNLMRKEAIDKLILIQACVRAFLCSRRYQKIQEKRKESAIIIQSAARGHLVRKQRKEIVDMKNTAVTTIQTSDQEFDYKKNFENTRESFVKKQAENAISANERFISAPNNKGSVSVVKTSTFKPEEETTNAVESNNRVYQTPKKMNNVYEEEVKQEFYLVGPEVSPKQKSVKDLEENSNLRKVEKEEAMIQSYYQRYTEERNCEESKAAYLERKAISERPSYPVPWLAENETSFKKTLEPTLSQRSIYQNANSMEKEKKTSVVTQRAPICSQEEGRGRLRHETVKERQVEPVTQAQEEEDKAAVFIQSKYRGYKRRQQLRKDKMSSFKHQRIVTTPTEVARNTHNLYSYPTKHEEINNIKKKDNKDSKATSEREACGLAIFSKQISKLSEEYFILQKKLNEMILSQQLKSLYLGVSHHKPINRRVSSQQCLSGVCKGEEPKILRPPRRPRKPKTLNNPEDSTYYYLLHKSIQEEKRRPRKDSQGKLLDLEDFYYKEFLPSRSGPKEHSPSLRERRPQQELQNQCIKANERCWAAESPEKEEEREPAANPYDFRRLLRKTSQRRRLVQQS
Sequence of Serine/threonine-protein kinase MRCK gamma (Homo sapiens) (Q6DT37 whole entry, the tested form may be a part): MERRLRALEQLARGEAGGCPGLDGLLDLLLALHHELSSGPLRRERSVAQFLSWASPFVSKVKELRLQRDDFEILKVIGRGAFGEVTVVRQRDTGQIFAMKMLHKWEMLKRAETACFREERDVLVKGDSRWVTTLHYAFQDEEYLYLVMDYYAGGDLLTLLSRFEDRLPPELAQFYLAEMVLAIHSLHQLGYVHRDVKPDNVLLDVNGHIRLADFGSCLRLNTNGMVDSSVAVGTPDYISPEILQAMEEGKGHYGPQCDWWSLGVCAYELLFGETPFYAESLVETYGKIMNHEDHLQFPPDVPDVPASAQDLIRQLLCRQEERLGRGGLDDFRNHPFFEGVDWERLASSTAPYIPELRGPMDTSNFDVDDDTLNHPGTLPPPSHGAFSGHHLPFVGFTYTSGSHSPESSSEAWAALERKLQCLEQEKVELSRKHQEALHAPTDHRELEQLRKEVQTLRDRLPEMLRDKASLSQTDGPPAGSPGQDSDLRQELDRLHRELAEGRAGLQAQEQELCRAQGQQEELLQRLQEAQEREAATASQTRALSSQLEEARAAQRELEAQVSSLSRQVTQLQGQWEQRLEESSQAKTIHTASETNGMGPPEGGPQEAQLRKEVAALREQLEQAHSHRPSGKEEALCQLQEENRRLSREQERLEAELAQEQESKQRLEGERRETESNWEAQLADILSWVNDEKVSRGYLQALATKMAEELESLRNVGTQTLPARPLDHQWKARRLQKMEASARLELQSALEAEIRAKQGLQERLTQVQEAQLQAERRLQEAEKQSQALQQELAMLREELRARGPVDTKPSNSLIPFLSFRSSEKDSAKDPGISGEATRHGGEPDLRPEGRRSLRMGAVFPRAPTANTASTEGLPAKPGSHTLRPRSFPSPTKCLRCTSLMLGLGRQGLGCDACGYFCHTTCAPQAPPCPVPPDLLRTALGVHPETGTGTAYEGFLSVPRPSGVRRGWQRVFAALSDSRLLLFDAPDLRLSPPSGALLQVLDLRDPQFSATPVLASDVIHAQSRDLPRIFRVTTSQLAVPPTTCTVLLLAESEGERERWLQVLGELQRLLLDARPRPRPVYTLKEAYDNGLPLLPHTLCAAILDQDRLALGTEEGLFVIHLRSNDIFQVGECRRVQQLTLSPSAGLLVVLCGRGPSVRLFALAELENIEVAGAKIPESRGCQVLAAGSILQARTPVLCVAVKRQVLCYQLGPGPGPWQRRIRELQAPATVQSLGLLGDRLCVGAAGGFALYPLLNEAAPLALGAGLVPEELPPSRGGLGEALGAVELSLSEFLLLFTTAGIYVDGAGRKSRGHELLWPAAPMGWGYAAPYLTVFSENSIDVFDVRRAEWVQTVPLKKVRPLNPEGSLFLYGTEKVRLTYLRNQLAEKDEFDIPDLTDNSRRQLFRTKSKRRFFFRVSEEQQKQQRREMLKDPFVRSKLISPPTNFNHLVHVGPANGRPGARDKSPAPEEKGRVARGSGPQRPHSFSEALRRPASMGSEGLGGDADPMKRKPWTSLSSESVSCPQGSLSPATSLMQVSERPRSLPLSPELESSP

Q: What does the source list for `O=C(Nc1cc(-c2cn(CCNc3c4c(nc5ccccc35)CCCC4)nn2)ccn1)Nc1cccc2c1C1CCCCN1C2=O` (racemic)?
A: Activity [1]: 61%; Activity [2]: 57%; Activity [3]: 24%; Activity [4]: 100%; Activity [5]: 7.1%; Activity [6]: 81%; Activity [7]: 100%; Activity [8]: 34%; Activity [9]: 3.4%; Activity [10]: 1.8%; Activity [11]: 1.7%; Activity [12]: 36%; Activity [13]: 0.2%; Activity [14]: 6.4%; Activity [15]: 55%; Activity [16]: 75%; Activity [17]: 42%; Activity [18]: 24%; Activity [19]: 1.3%; Activity [20]: 66%; Activity [21]: 100%; IC50 (Caco-2): 3 µM; Papp A→B (MDR1): 11.1 ×10⁻⁶ cm/s; Activity [22]: 44%; Activity [23]: 0%
